Data as given in patent US20260215425A1, “NITRIFICATION INHIBITORS” (The University of Melbourne, priority 2022, published 2026).

How the values were obtained:
N. europaea = assay: standard nitrification inhibition assay (NO2- production, Griess); type: cell-based, Nitrosomonas europaea; settings: [NH4+]=3 mM, [inhibitor]=0.3 mM (10 mol %), pH 7.5, 30° C., 60 min
Protocol: (§1) Cells of N. multiformis and N. europaea were cultivated to the mid-exponential growth phase (OD600=0.1, [NO2^−] approximately 800 μM) and harvested by filtration onto 0.2 μm membrane filters (Mixed Cellulose Ester (MCE), Sigma Aldrich). The cells were washed with 2×100 mL of 0.1 M sodium phosphate buffer (NaPB), containing 0.2 mM MgSO4 at pH 7.5. The cells were washed from the filter paper by transferring it to a sterile 50 mL tube and resuspending in NaPB (15 mL), followed by 5 s of vortexing (Ratek, Australia) and 3 s of sonication (Vevor, Australia). […] Experiments were performed in triplicate.
(§2) In a deep 96-well plate (2 mL capacity), 980 μL of the bacterial inoculum (OD600=0.03) was added to the inhibitor (10 μL, 30 mmol L^−1 in Milli-Q water), the solutions were mixed thoroughly and pre-incubated in the dark for 5 minutes at 100 rpm and 30° C. (NH4)2SO4 (10 μL, 150 mM, from a prepared sterile solution containing 19.8 g L^−1 (NH4)2SO4 in Milli-Q water) was then added using a multi-channel pipette. The plate was covered with a with an O2 permeable membrane to ensure aeration (Breathe-Easy® sealing membrane, Sigma Aldrich) and incubated in a temperature-regulated rotary incubator (Ratek, Australia) in the dark for 60 minutes at 30° C. and 100 rpm. An aliquot of the reaction solution ([…]) was transferred to a 96-well spectrophotometric plate to which 50 µL of Griess reagent was added. The colour was allowed to develop for 15 minutes at room temperature, and the absorbance was measured at 540 nm. Each assay was accompanied by control treatments to determine the 0% and 100% NO2 signal. The percentage inhibition was calculated according to eqn. 1 from the NO2 production of the cells in NaPB (i) without additive (‘untreated cells’: 0% signal), (ii) with [NH4^+]=3 mM (‘uninhibited’ cells: 100% signal) and (iii) with [NH4^+]=3 mM and [inhibitor]=0.3 mM and 0.03 mM (10 mol % and 1 mol % of [NH4^+], ‘inhibited cells’). Experiments were performed in triplicate.

N. multiformis = assay: as above; type: cell-based, Nitrosospira multiformis; settings: [NH4+]=3 mM, [inhibitor]=0.3 mM (10 mol %), pH 7.5, 30° C., 60 min
Protocol: as §1, §2

Question: What does the source list for `C#CCCn1cc(CCC)nn1` [Compound 2]?
Answer: % Inhibition NE (N. europaea): 21 ± 2%; % Inhibition NM (N. multiformis): 40 ± 1%

Question: `C#CCOC(=O)Cn1cc(CCC)nn1` [Compound 3] was tested. Which “% Inhibition NE” value (N. europaea) did it give?
Answer: 49 ± 2%

Question: And the “% Inhibition NM” value (N. multiformis)?
Answer: 47 ± 2%
